Laboratory results taken from a melting point compilation (Tetko et al.; mined from patent text by program, amines drawn as free bases though some values may be those of a salt).

Row | SMILES | melting point
1 | O=C(Oc1cccc(Cl)c1)c1ncn2c1[C@@H]1CCCN1C(=O)c1c(Cl)cccc1-2 | 194 to 195 °C
2 | O=C(/C=C/C=C/c1ccccc1Cl)NCCCCCC(=O)NO | 129 to 131 °C
3 | Cc1cccc(NC(=O)NCC(=O)N(CC(=O)N(C)c2ccccc2)c2ccccc2Cl)c1 | 180 °C
4 | CC(=O)C(C#N)C(=O)C1CC1 (configuration not stated) | 62 to 63.5 °C
5 | CC(=O)C=Cc1c(C)c(C)c(C)c2c1OCC2 | 116 °C
6 | Nc1c(F)cc(F)c(-n2cc(C(=O)O)c(=O)c3cc(F)c(N4CC[C@H](N)C4)nc32)c1F | 273 to 277 °C
7 | CCOC(=O)c1c(C)cc(C(=O)O)c(NC=O)c1C | 144 to 146 °C
8 | Cc1cc([N+](=O)[O-])c2c(c1Cl)CC(CO)O2 (configuration not stated) | 112 to 115 °C
9 | O=C(O)C(=O)c1ccc(Br)s1 | 119 to 120 °C
10 | CCCCC(Cc1ccc(OCCNC(=O)c2ccc(N3CCCCC3)cc2)cc1)C(=O)O (configuration not stated) | 112 to 114 °C
11 | CNC1C=CC(C(C)C)C2CNCC12 (configuration not stated) | 76 to 81 °C
12 | COc1ccc(/C=C/c2cc(/C=C/c3c[nH]c4ccccc34)n[nH]2)cc1OCc1ccccn1 | 232 to 243 °C
13 | COC12CC(CNC(=S)NC(C)=O)CN(C)C1Cc1cn(C)c3cccc2c13 (configuration not stated) | 170 to 172 °C
14 | OCCc1nccn1CCCCc1ccc(O)cc1 | 75 to 77 °C
15 | NC(CCCCNC(=O)OCc1ccccc1)C(=O)Nc1cccc2ccccc12 (configuration not stated) | 138 to 140 °C
16 | CCC(C(=O)O)c1ccccc1Br (configuration not stated) | 37 to 39 °C
17 | N#CCON=C(CCN1CCN(c2ccccn2)CC1)c1ccccc1 | 127 to 128 °C
18 | C=CCN1C2CCC1C1CCC2N1C(c1ccc(C(=O)N2CCCC2)cc1)c1cccc(OC)c1 (configuration not stated) | 46 to 48 °C
19 | O=C(CCCCCCS(=O)(=O)c1ccccc1)c1ncco1 | 55 to 56 °C
20 | O=C(NC(=O)c1cc(Cl)cc(Cl)c1)NC1CN2CCC1CC2 (configuration not stated) | 253 to 254 °C
21 | Cc1c(C)c(NC(=O)CC(C)(C)C)c2c(c1C)C(O)(c1ccc(C(C)C)cc1)C(C)(C)O2 (configuration not stated) | 178 to 179 °C

Row | SMILES | melting point
22 | CCOc1cc(C=O)cc2c1OC1(C=C2Br)CCN(C(=O)OC(C)(C)C)CC1 | 148 to 150 °C
23 | O=C(COc1ccc(C(=O)OCc2ccccc2)cc1)NN=C1C(=O)Nc2ccc(I)cc21 | 221 °C
24 | O=C(O)C1=Cc2cc(O)ccc2S(=O)(=O)CC1 | 260 to 265 °C
25 | CNC(=O)Cc1ccccc1[N+](=O)[O-] | 147 °C
26 | CCCCCCCC(CCCCCC)CCOC(=O)c1ccccc1N=NN1CCOCC1 (configuration not stated) | 40 to 42 °C
27 | O=C(Nc1cccc(F)c1)c1ccc(CN2C(=O)C3(COc4cc5c(cc43)CCO5)c3ccccc32)cc1 (configuration not stated) | > 250 °C
28 | O=C(NS(=O)(=O)C=Cc1ccc([N+](=O)[O-])cc1)c1ccccc1 | 192 to 195 °C
29 | FC(F)(F)c1ccc(-c2cc(Oc3ccc4cccnc4c3)ncn2)c(NCC2CCCCC2)n1 | 151 to 152 °C
30 | Cc1cc2c(cc1C(F)(F)F)N(c1ccc(C(=O)O)cc1)CCC[C@@H]2N(Cc1cc(C(F)(F)F)cc(C(F)(F)F)c1)c1nnn(C)n1 | 101 to 105 °C
31 | CC(C)(C)OC(=O)N1CCC(CBr)CC1 | 48 to 50 °C
32 | COc1ccc(C(=O)c2[nH]c3cc(Cl)ccc3c2CC(=O)O)cc1 | 187 to 190 °C
33 | COc1ccc(OC)c2c1CC[C@](O)(C(=O)O)C2 | 91 to 93 °C
34 | CC(C)N1C(=O)c2ccccc2N(C(=O)c2cc(Oc3ccc(C(F)(F)F)cc3Cl)ccc2[N+](=O)[O-])S1(=O)=O | 125 to 128 °C
35 | C=CCN(C)S(=O)(=O)CC(=O)C=C(C)N | 86 to 89 °C
36 | COC(=O)c1ccc(C(C)(C)C)[nH]c1=O | 171 to 174 °C
37 | COC12CC(c3nnc(-c4cncc(Br)c4)[nH]3)CN(C)C1Cc1c[nH]c3cccc2c13 (configuration not stated) | 142 to 146 °C
38 | CN(C)C1(c2ccccc2)CCC(CNC(=O)NCCc2c[nH]c3ccccc23)CC1 (configuration not stated) | 159 to 163 °C
39 | O=[N+]([O-])c1cc(Cl)ccc1/C=C/c1ccc(Cl)cc1[N+](=O)[O-] | 247 to 248 °C
40 | CCC1(C)C(=O)c2cc(OC)c(Cl)c(Cl)c2C1=O (configuration not stated) | 157 °C
41 | CC(=O)CC1(C(=O)c2ccc([N+](=O)[O-])cc2)C=CC(Cl)=C(Cl)C1 (configuration not stated) | 121 to 122 °C

Further lines, results first:

Row | melting point | SMILES
42 | > 350 °C | COc1ccc(-c2c(O)c3ccc(Cl)cc3[nH]c2=O)cc1
43 | 219 to 220 °C | CC(=S)NCC1CC(c2ccc(N3CCSCC3)c(F)c2)=NO1 (configuration not stated)
44 | 132 to 133 °C | COCCNC(=O)c1cccc(-c2cccc3c(C)c(Cc4cc(F)cc(Cl)c4)sc23)c1
45 | 188 to 190 °C | COc1cc2[nH]c(C)c(C(=O)C(=O)N3CCC(C(=O)c4ccccc4)CC3)c2cc1OC
46 | 151 to 154 °C | C=C1c2c(C)cccc2NC(=O)N1CC(=O)OCC
47 | 289 to 291 °C | O=C(O)c1cc(S(=O)(=O)O)c2cccnc2c1O
48 | 203 °C | OC1CSC(Oc2cncc(-c3cccnc3)c2)C(O)C1O (configuration not stated)
49 | 156 to 158 °C | Cc1cc(C(N)=O)ccc1NC1CCN(Cc2ccccc2)CC1
50 | 132 to 135 °C | COC=C(C(=O)OC)c1c(OC)ncnc1Oc1cccc(COc2ccccc2C#N)c1
51 | 132 to 134 °C | Cc1ccc(S(=O)(=O)OCC2Cc3cccc(Nc4ccc(Cl)cc4)c3O2)cc1 (configuration not stated)
52 | 216 to 218 °C | Cc1ccc(C(=O)Nc2ccc(N3CCOCC3)c(C(F)(F)F)c2)cc1Nc1nccc(-c2cccnc2)n1
53 | 260 to 267 °C | N#CC(C(N)=O)=C1Cc2ccccc2SN1
54 | 154 to 155 °C | CCCn1ncc2c(=O)[nH]c(-c3ccccc3OCC)nc21
55 | 177 to 178 °C | CCCn1c(=O)c2[nH]c(C3CCOC3)nc2n(CCC)c1=O (configuration not stated)
56 | 143 to 148 °C | COC1=C(Br)CO/C1=C\c1cccc2ccccc12
57 | 71 to 72 °C | CCOC(=O)c1cnc2sccc2c1Cl
58 | > 300 °C | Cn1c(=O)c2[nH]c(C=Cc3cccc(C(F)(F)F)c3)nc2n(C)c1=O
59 | 278 to 280 °C | CC1NC(=O)NN=C1c1ccc(N2CCCC2=O)cc1 (configuration not stated)
60 | 190 to 192 °C | Oc1ccc2c(Cl)cc(-c3ccccc3)nc2c1
61 | 97 to 98 °C | Cc1cccc(C)c1NCCCN1C(=O)c2ccccc2C1=O
62 | 91 to 93 °C | CN(Cc1ccccc1)CC1CCSc2[nH]c3ccccc3c21 (configuration not stated)

Row | melting point | SMILES
63 | 152 to 154 °C | CCC(=O)Nc1ccc(C2=NN(C(=O)CC)C(C)Cc3cc4c(cc32)OCO4)cc1 (configuration not stated)
64 | 129 to 130 °C | CC(C)(C)NC(=O)[C@@H]1C[C@H](O)CN1C(=O)OCc1ccccc1
65 | 219 °C | CNC1(c2ccccc2Cl)C(=O)Nc2c(F)cc(Cl)cc21 (configuration not stated)
66 | 178 to 179 °C | CCc1cc(C(=O)c2ccccc2Cl)c(-n2c(C)nnc2CNC(=O)Nc2cccc(CC(=O)OC(C)(C)C)c2)s1
67 | 134 to 135 °C | Cc1ccc(CSc2c(O)cc(C)oc2=O)cc1
68 | 187 to 189 °C | C[C@@H]1COC(=O)N1c1nc(-c2cccc(C#N)c2)cs1
69 | 83 to 85 °C | Cc1ccc(Cc2cnc(NCCCN(C)c3ncccc3C)[nH]c2=O)cn1
70 | 154 to 156 °C | Cc1cc(=O)[nH]c(SCc2ccccn2)n1
71 | 220 to 221 °C | O=c1c2ccc3c(c2oc2cccc(F)c12)CC(CO)O3 (configuration not stated)
72 | 87 to 89 °C | CCCCS(=O)(=O)N(C(=O)OC(C)(C)C)c1cc(OC[C@@H]2CO2)ccc1OCc1ccccc1
73 | 45 to 47 °C | CCOC(=O)c1oc2cccc(COC)c2c1C
74 | 114 to 116 °C | Cn1ccnc1COc1ccccc1N
75 | 177 to 178 °C | O=C(NC1=NN(c2ccc(Cl)c(Cl)c2)CC1)c1ccc(Cl)cc1
76 | 240 to 242 °C | N#Cc1cnc2c(sc3ccccc32)c1Nc1cccc(Br)c1
77 | 167 to 169 °C | CCS(=O)(=O)CCC(=O)NNC(=O)N1Cc2ccccc2Oc2ccc(C)cc21
78 | 199 to 201 °C | CN1CCOC(=NO)C1=O
79 | 93 to 95 °C | CN(C)c1ccc(CN2C(=O)C3(COc4cc5c(cc43)OCCO5)c3ccccc32)cn1 (configuration not stated)
80 | 82 to 84 °C | CCCc1cc(NC(=O)N2CCN(c3cc(OC)cc(OC)c3)CC2)c(OC)nc1C
81 | 91 to 92 °C | Cc1ccc(-c2ccc3cc4c(cc3c2)C(C)(C)CCC4(C)C)cc1
82 | 239 to 241 °C | COc1ccc(Cl)cc1-c1c(S)c(=O)[nH]c2ccc(C(F)(F)F)cc12
83 | 168 to 170 °C | CC(C)n1cc(C=O)c(-c2ccc([N+](=O)[O-])o2)n1

Row | melting point | SMILES
84 | 279 to 281 °C | CC1(C)Oc2ccc(S(=O)(=O)C(F)(F)F)cc2[C@@H](N2Cc3ccccc3C2=O)[C@@H]1O (relative stereo)
85 | 198 to 200 °C | COC(=O)c1ccc(NC(=O)c2cc(C(C)C)c(C(C)C)o2)cc1
86 | 91 to 94 °C | Cc1noc(NS(=O)(=O)c2ccccc2[N+](=O)[O-])c1C
87 | 174 °C | N#Cc1ncccc1OC1SCC(O)C(O)C1O (configuration not stated)
88 | 90 to 92 °C | CCOC(=O)c1cnn(-c2ccc(OCC(C)(C)C)c(C#N)c2)c1Cl
89 | 133 °C | COc1ccnc(C#N)c1OC
90 | 153 to 155 °C | FC(F)(F)c1cccc2c(-c3ccccc3)c(Sc3ccccc3)cnc12
91 | 178 to 180 °C | O=S(=O)(c1cccc2ccccc12)c1n[nH]c2ccc(OC3CCCNC3)cc12 (configuration not stated)
92 | 180 to 181 °C | CC(C)(C)C(NC(=O)c1ccc(Br)cc1)NC(=NC#N)Nc1cccnc1 (configuration not stated)
93 | 360 °C | COc1cc2ccc(-c3ccc(C(=O)O)cc3)cc2cc1C12CC3CC(CC(C3)C1)C2
94 | 62 to 63 °C | COC(=O)c1cncn1C1c2ccsc2CC1(C)C (configuration not stated)
95 | 184 to 189 °C | Cc1cccc(C(=O)c2ncccc2C(=O)O)c1
96 | 133 °C | COc1ccc(C2CCCN2S(=O)(=O)c2ccc(Cl)cc2)cc1 (racemic)
97 | 160 °C | Cc1cccc(NC(=O)NCC(=O)N2[C@@H](C(=O)OC(C)(C)C)C[C@H](C(=O)O)[C@H]2c2ccccc2)c1 (racemic)
98 | 305 to 307 °C | Cc1nc(-c2cc(C#N)c(=O)[nH]c2C)cs1
99 | 221 to 223 °C | CCc1c(-c2ccc(OC)cc2)c2c(C(=O)N(C)CCN(C)C)c(C(=O)O)c3cc(OC)cc1n32
100 | 272 to 274 °C | O=C(O)c1cccc(-n2cnc3cc(-c4ccoc4)ccc32)c1
101 | 121 to 123 °C | CCc1cn(C)cc(-c2ccc(Cl)c(C(F)(F)F)c2)c1=O
102 | 134 to 138 °C | COC(=O)c1ccccc1C1=NC(C)C(=S)N1 (configuration not stated)
